We go through 13 compounds from ChEMBL document CHEMBL1201862, “PubChem BioAssay data set” (2004).

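How tested: cells in 96-well plates exposed to compound for 48 hours at five concentrations. The concentration for 50% growth inhibition is given as GI50.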 The source made the active and inactive calls. Cut-off read from the data, not from the text of the source: active = GI50 up to about 1.1 µM and inactive = higher.

Common to all, as to test: inhibition of tumour cell growth, NCI panel, 48 h
In assay [1] the test system is MDA-N.
Assay [2] deals with CCRF-CEM.
Assay [3] has as its system BT-549.
The test system of assay [4] is LXFL 529.
In assay [5] the test system is SF-295.
Assay [6] deals with SK-MEL-28.
Assay [7] has as its system MCF7.
Assay [8] concerns PC-3.
The test system of assay [9] is M14.
Assay [10] deals with HCT-116.
Assay [11] deals with UACC-257.
Assay [12] concerns SK-MEL-5.
Assay [13] deals with SK-MEL-2.
Assay [14] relates to EKVX.
Assay [15] relates to TK-10.
Assay [16] concerns RXF 393.
The subject of assay [17] is T47D.
The test system of assay [18] is SNB-19.
In assay [19] the test system is COLO 205.

For `CCOC(=O)CSc1nnc(CSc2nc(-c3ccccc3)c(-c3ccccc3)[nH]2)n1-c1ccccc1`, the GI50 in assay [1] is 75.3 µM (inactive); in assay [2], > 54 µM (inactive); in assay [3], > 100 µM (inactive); in [4] it was 21.1 µM (inactive); in assay [5], > 100 µM (inactive); in [6], > 58.7 µM (inactive). The GI50 was 66.4 µM (inactive) in assay [7]; 20.7 µM (inactive) in [8]; > 45 µM (inactive) in [9]; > 56.5 µM (inactive) in assay [10]; 29.3 µM (inactive) in assay [11]; > 100 µM (inactive) in [12]. Also, the GI50 is > 31.6 µM (inactive) in assay [13]; > 100 µM (inactive) in assay [14]; 17 µM (inactive) in assay [15]; 22.5 µM (inactive) in [16]; 26.7 µM (inactive) in assay [17]; > 100 µM (inactive) in [18]. Besides, in assay [19], the GI50 was > 58.2 µM (inactive).

Regarding `COC(=O)CC(NC(=O)OCc1ccccc1)C(C(=O)OCc1ccccc1)C1(C)OCCO1` (centres undefined), the GI50 in assay [2] was 26.6 µM (inactive); in [4] it was 18.8 µM (inactive); in [5], 32.4 µM (inactive); in [6] it was 66.5 µM (inactive); in [9], 40.7 µM (inactive); in assay [10], 40.4 µM (inactive). In addition, the GI50 was 30.4 µM (inactive) in assay [11]; 17.5 µM (inactive) in [12]; 20 µM (inactive) in [13]; 44.4 µM (inactive) in assay [14]; 57.1 µM (inactive) in assay [15]; 21.4 µM (inactive) in assay [16]. The GI50 in assay [18] was 50 µM (inactive); in assay [19], 18.6 µM (inactive).

Regarding `O=NN(CCCl)C(=O)N[C@H]1CC[C@H](CC(=O)O)CC1`, the GI50 in [2] is 21.1 µM (inactive); in assay [4], > 100 µM (inactive); in [5] it was 34.8 µM (inactive); in [6] it was > 100 µM (inactive); in assay [7], > 100 µM (inactive); in assay [9] it was > 100 µM (inactive). The GI50 is > 100 µM (inactive) in assay [10]; > 100 µM (inactive) in assay [11]; > 100 µM (inactive) in assay [12]; > 100 µM (inactive) in assay [13]; > 46.5 µM (inactive) in assay [14]; > 100 µM (inactive) in assay [15]. The GI50 in [16] is > 100 µM (inactive); in assay [18], 59.3 µM (inactive); in assay [19], > 100 µM (inactive).

On to `Cc1no[n+]([O-])c1/C=N/NS(=O)(=O)c1ccccc1`, for which the GI50 in assay [2] was > 10 µM (inactive); in [4], > 100 µM (inactive); in assay [6] it was > 100 µM (inactive); in assay [9], > 100 µM (inactive); in assay [10], > 100 µM (inactive); in [12], > 100 µM (inactive). Besides, the GI50 in assay [13], in assay [14], in assay [15], in assay [16], in assay [18] and in assay [19] was > 100 µM (inactive) in each case.

In the case of `N#C/C(=C\c1c(O)cc(O)cc1O)C(N)=O`, the GI50 in assay [2], in assay [4], in [5], in [6], in assay [9] and in assay [10] was > 100 µM (inactive) in each case. Further, the GI50 in [11], in [12], in assay [13], in assay [14], in [15] and in assay [16] was > 100 µM (inactive) each time. In addition, the GI50 in assay [18] and in [19] was > 100 µM (inactive) each time.

On to `O=C1N[C@H](Cc2c[nH]cn2)C(=O)N2CCC[C@@H]12`, for which the GI50 in assay [2], in assay [4], in [5], in assay [6], in assay [9] and in assay [11] was > 100 µM (inactive) each time. Further, the GI50 in assay [12], in assay [13], in assay [14], in assay [15], in [16] and in [18] was > 100 µM (inactive) throughout. In assay [19], the GI50 was > 100 µM (inactive).

On to `O=c1c(-c2cccc3ccccc23)c(-c2cccc3ccccc23)c1=O`, for which the GI50 in assay [2] was 0.395 µM (active); in [4] it was 3.05 µM (inactive); in assay [5] it was 0.446 µM (active); in assay [6], 10.6 µM (inactive); in [9], 2.24 µM (inactive); in assay [10] it was 1.85 µM (inactive). Besides, the GI50 in [11] is 4.25 µM (inactive); in [12] it was 3 µM (inactive); in [13], 2.29 µM (inactive); in [14] it was 7.67 µM (inactive); in assay [15], 15.1 µM (inactive); in [16] it was 4.69 µM (inactive). In addition, the GI50 in [18] was 1.48 µM (inactive); in assay [19] it was 0.363 µM (active).

For `Cc1cc(Cl)cc2c1NC(=O)C2(O)CC(=O)c1ccc(Br)cc1` (centres undefined), the GI50 in [2] is 18.6 µM (inactive); in assay [4], 68.9 µM (inactive); in assay [5], 46.9 µM (inactive); in assay [6], 35.6 µM (inactive); in [9], 52 µM (inactive); in assay [10], 56.9 µM (inactive). Further, the GI50 was 32.6 µM (inactive) in assay [11]; 25 µM (inactive) in assay [12]; > 100 µM (inactive) in assay [13]; 59.4 µM (inactive) in [14]; > 73.8 µM (inactive) in assay [15]; 21.8 µM (inactive) in assay [16]. Besides, the GI50 in [18] was 71 µM (inactive); in assay [19], > 100 µM (inactive).

For `CCOC(=O)c1c[nH]c2c(ccc3nn(C)nc32)c1=O`, the GI50 in assay [2] is 34 µM (inactive); in assay [4], > 100 µM (inactive); in assay [5], > 100 µM (inactive); in assay [6], > 100 µM (inactive); in assay [9], > 100 µM (inactive); in assay [10] it was 24.9 µM (inactive). Moreover, the GI50 in assay [11] is > 100 µM (inactive); in assay [12], > 100 µM (inactive); in assay [13], 19.4 µM (inactive); in [14], > 100 µM (inactive); in assay [15], > 100 µM (inactive); in assay [16] it was 30.4 µM (inactive). Besides, the GI50 in assay [18] was > 100 µM (inactive); in assay [19], 38.3 µM (inactive).

As to `Cc1c(C(=O)CC(=O)C(=O)Nc2ccc(Cl)c(Cl)c2)[n+]([O-])c2ccccc2[n+]1[O-]`, the GI50 in [2] was 17.2 µM (inactive); in [4] it was 16.3 µM (inactive); in [5] it was 41.7 µM (inactive); in [6], 37.9 µM (inactive); in assay [9], 18.1 µM (inactive); in assay [10], 19 µM (inactive). Moreover, the GI50 in [11] is 17.5 µM (inactive); in [12], 19.5 µM (inactive); in assay [13], 26.9 µM (inactive); in assay [14] it was 12.5 µM (inactive); in [15], 46.5 µM (inactive); in assay [16], 27.4 µM (inactive). In addition, the GI50 in assay [18] is 27 µM (inactive); in assay [19], 19.4 µM (inactive).

On to `Oc1ccccc1/C=C/c1csnn1`, for which the GI50 is > 100 µM (inactive) in assay [2]; > 100 µM (inactive) in assay [4]; > 100 µM (inactive) in assay [5]; > 100 µM (inactive) in [6]; > 100 µM (inactive) in [9]; 98.4 µM (inactive) in assay [10]. Moreover, the GI50 in assay [11], in assay [12], in assay [13], in [14], in [15] and in assay [16] was > 100 µM (inactive) each time. In addition, the GI50 in assay [18] and in [19] was > 100 µM (inactive) each time.

Take `O/N=C1/C(=C/c2ccc(Cl)c(Cl)c2)CCCC1C(NO)c1ccc(Cl)c(Cl)c1` (centres undefined): the GI50 in assay [2] was 17.2 µM (inactive); in assay [4], 15.7 µM (inactive); in assay [6], 17.9 µM (inactive); in [9] it was 17.4 µM (inactive); in [10], 16.2 µM (inactive); in assay [11], 18.7 µM (inactive). In addition, the GI50 is 18.5 µM (inactive) in [12]; 17.4 µM (inactive) in [13]; 21.9 µM (inactive) in assay [14]; 19.8 µM (inactive) in assay [15]; 19.7 µM (inactive) in [16]; 17.6 µM (inactive) in assay [18]. In [19], the GI50 is 18.3 µM (inactive).

`CO[C@H](c1ccccc1)[C@H](C)N(C)c1ccc2ccccc2c1C1=NC(C)(C)CO1`: the GI50 was 15.4 µM (inactive) in [2]; 14.9 µM (inactive) in assay [4]; 15.5 µM (inactive) in assay [5]; 18.3 µM (inactive) in [6]; 16.5 µM (inactive) in assay [9]; 10.8 µM (inactive) in assay [10]. Also, the GI50 was 15.7 µM (inactive) in [11]; 88.3 µM (inactive) in assay [12]; 14.3 µM (inactive) in assay [13]; 20.1 µM (inactive) in assay [14]; 22.9 µM (inactive) in assay [15]; 13.8 µM (inactive) in assay [16]. Also, the GI50 was 24.8 µM (inactive) in assay [18] and 13.8 µM (inactive) in assay [19].
